# Literature values, collected in paper PMC5384962, “First-in-human studies of seletalisib, an orally bioavailable small-molecule PI3Kδ inhibitor for the treatment of immune and inflammatory diseases” (European Journal of Clinical Pharmacology, 2017).
# Parameters: method as in ref 29 = [29]; 29. Infinity Pharmaceuticals (2015) Press release: Infinity reports topline results from Phase 2 study of duvelisib in rheumatoid arthritis.
# Conditions: patients with moderate-to-severe RA; cited from earlier work
structure (smiles),measurement,value
C[C@H](Nc1ncnc2nc[nH]c12)c1cc2cccc(Cl)c2c(=O)n1-c1ccccc1 [duvelisib],phase II primary endpoint (ACR20 at week 12),failed to meet its phase II study primary endpoint
